Experimental data taken from US8992891B2, “Therapeutic approaches for treating CMT and related disorders” (Pharnext, priority 2007, dated 2015).

Columns and labels:
[1] = system: PMP22 protein; assay: PMP22 protein expression analysis by flow cytometry (FACS) in Schwann cells; assay type: cell-based, rat; set-up: key to Protein (PMP22 expression decrease): +: significantly decreases PMP22 levels compared to control; conditions: for Protein (PMP22 expression decrease): rat primary Schwann cells, FACS, 24 hrs
Procedure: One day later, Schwann cells are stimulated by combinations of drugs or drugs alone during 24 hrs (3 wells/condition). The preparation of each compound is performed just prior to its addition to the cell culture medium. Drugs are added to a defined medium composed of DMEM-F12, with 1% Insulin-Transferrin-Selenium-X (ITS, Invitrogen #51300), 16 μg/ml of Putrescine, 0.02 μg/ml of corticosterone, 10 nM Progesterone and 50 μg/ml of gentamicin. The absence of Forskolin during drug stimulation avoids adenylate cyclase saturation. 8 hrs, 24 hrs and 48 hrs after drugs incubation, supernatants are recovered, centrifuged and frozen. SC are detached with trypsin-EDTA. As soon as the majority of cells are in suspension, the trypsin is neutralised using DMEM with 10% FCS. Supernatants with cells are recovered and centrifuged. The pellets of cells are transferred in micro tubes, washed in PBS once and fixed with a specific solution (AbCys #Reagent A BUF09B). 10 minutes later, cells are rinsed once with PBS and kept at 4° C. Five days after cell fixation, all cell preparations with different incubation times are labelled using the following protocol. […] Cells are then centrifuged at 7000 rpm for 5 minutes and cell pellets are rinsed once in PBS. A secondary antibody is added, coupled to Alexa Fluor 488 (goat anti-rabbit IgG, Molecular Probes #A11008, 1/100), for one hour at room temperature. Cells are then centrifuged at 7000 rpm for 5 minutes and cell pellets are rinsed once in PBS. The labelling is increased adding a tertiary antibody coupled to Alexa Fluor 488 (chicken anti-goat IgG, Molecular Probes #A21467, 1/100) for one hour incubation, at room temperature. Cells are then rinsed once in PBS. Control without any antibody (unlabelled cells) is performed to determine the level of autofluorescence and adapted the sensitivity of the photomultiplicators. Control with both secondary and tertiary antibodies but without primary antibody, is performed to assess non specific binding of antibodies. Data acquisition and analysis are performed with a FACS Array cytometer and FACS Array software (Becton Dickinson) on 5000 cells. Forward Scatter (FSC) correlated with cell volume (size) and Side Scatter (SSC) depending on inner complexity of cells (granularity) are analysed. For expression of PMP22, analysis is performed within the total cells and percent of positive cells is calculated. Positive cells are cells with fluorescence intensity higher than the control with secondary antibody. We tested the ability of some drugs to inhibit PMP22 protein expression (FACS analysis). […] The results of the action of some individual drugs on the protein level of PMP22 are also shown on table 1 above.

[2] = system: hemizygous PMP22 transgenic rat (CMT rat); assay: Electrophysiological evaluation in CMT transgenic rats; assay type: in vivo; conditions: versus TG placebo group; for potential amplitude measured on the distal portion of the tail: CMT rats treated during 20 weeks
Text: When appropriate, the rats are subjected to electrophysiological evaluation and histological measurement.

SMILES | Protein (PMP22 expression decrease) [1] | potential amplitude measured on the distal portion of the tail [2] | nerve conduction velocity (NCV) ([2]; CMT rats) | PMP22 protein expression, in words ([1]; Schwann cells in vitro, 24 hrs of incubation, compared to untreated controls)
Cn1cc[nH]c1=S [Methimazole] | + | significantly improved | not significantly affected | 
CC[C@@H]1C(=O)OC[C@@H]1Cc1cncn1C [Pilocarpine] | + | failed to reach statistical significance |  | decreases expression of the PMP22 protein
